Experimental data from patent US9416133B2, “Hydropyrrolopyrrole derivatives for use as fatty acid synthase inhibitors” (MERCK PATENT GMBH, priority 2012, dated 2016).

Molecular target: T1, human recombinant full-length fatty acid synthase (FASN) (Homo sapiens, UniProt P49327)
T1 construct: 40 nM human recombinant full-length fatty acid synthase (produced in-house in SF9 cells); made in house; host or cells: SF9 cells
Test: Biochemical activity testing of human fatty acid synthase FASN (NADPH fluorescence intensity enzyme assay)
Details: inhibition of NADPH conversion
Description: Biochemical Activity Testing of Human Fatty Acid Synthase FASN
Fatty acid synthase FASN is a multifunctional enzyme with seven catalytic activities thereby synthesising long chain fatty acids especially palmitoyl-CoA in the presence of co-factor NADPH starting from the substrates acetyl-CoA and malonyl-CoA. The reductive synthesis is realized by the oxidation of NADPH to NADP. Since NADPH has a high fluorescence intensity quantum yield compared to NADP with excitation at 340 nm and emission at 460 nm, the reaction can be monitored via the decrease in fluorescence intensity. The biochemical FASN activity testing was performed as 384 well two-time-point kinetic fluorescence intensity assay format in Greiner low volume medium binding 384-well black microtiter plates in a total assay volume of 8 μl and was used for high throughput screen. In each well 3 μl 40 nM human recombinant full-length fatty acid synthase (produced in-house in SF9 cells) were dispensed in the following assay buffer: 50 mM potassium phosphate buffer pH 7.0, 0.005% (w/v) BSA, 2 mM Glutathione, 0.02% Tween-20. Then 2 μl of 200 μM NADPH in assay buffer were added, followed by the addition of the test compounds in 10 dilution concentrations starting with 30 μM (final concentration) to get a final DMSO content of 1% (v/v). The mixture was incubated for at least 15 min at room temperature. After the pre-incubation the enzymatic reaction was started by the addition of 2 μl substrate solution (80 μM acetyl-CoA, 240 μM malonyl-CoA). A first fluorescence intensity measurement (time point one) was performed with an Envision multimode reader (Perkin Elmer LAS Germany GmbH) at excitation wavelength 340 nm (lamp mode) and emission wavelength 460 nm. The reaction was incubated for 30 minutes at room temperature. After this the fluorescence intensity was measured again in the Envision using the same parameters as described above (second time point measurement). The data were analysed by subtracting the first time point measurement value from the second time point measurement value (after the enzymatic reaction). The differences of the emission signals were determined. These reflect directly the conversion rate of NADPH. The full value used was the inhibitor-free reaction. A pharmacological zero value was used like GSK837149A (Sigma-Aldrich) in a final concentration of 5-10 μM. The inhibitory values (IC50) were determined using either the program Symyx Assay Explorer® or Condosseo® from GeneData.

T1 sequence (P49327 whole entry): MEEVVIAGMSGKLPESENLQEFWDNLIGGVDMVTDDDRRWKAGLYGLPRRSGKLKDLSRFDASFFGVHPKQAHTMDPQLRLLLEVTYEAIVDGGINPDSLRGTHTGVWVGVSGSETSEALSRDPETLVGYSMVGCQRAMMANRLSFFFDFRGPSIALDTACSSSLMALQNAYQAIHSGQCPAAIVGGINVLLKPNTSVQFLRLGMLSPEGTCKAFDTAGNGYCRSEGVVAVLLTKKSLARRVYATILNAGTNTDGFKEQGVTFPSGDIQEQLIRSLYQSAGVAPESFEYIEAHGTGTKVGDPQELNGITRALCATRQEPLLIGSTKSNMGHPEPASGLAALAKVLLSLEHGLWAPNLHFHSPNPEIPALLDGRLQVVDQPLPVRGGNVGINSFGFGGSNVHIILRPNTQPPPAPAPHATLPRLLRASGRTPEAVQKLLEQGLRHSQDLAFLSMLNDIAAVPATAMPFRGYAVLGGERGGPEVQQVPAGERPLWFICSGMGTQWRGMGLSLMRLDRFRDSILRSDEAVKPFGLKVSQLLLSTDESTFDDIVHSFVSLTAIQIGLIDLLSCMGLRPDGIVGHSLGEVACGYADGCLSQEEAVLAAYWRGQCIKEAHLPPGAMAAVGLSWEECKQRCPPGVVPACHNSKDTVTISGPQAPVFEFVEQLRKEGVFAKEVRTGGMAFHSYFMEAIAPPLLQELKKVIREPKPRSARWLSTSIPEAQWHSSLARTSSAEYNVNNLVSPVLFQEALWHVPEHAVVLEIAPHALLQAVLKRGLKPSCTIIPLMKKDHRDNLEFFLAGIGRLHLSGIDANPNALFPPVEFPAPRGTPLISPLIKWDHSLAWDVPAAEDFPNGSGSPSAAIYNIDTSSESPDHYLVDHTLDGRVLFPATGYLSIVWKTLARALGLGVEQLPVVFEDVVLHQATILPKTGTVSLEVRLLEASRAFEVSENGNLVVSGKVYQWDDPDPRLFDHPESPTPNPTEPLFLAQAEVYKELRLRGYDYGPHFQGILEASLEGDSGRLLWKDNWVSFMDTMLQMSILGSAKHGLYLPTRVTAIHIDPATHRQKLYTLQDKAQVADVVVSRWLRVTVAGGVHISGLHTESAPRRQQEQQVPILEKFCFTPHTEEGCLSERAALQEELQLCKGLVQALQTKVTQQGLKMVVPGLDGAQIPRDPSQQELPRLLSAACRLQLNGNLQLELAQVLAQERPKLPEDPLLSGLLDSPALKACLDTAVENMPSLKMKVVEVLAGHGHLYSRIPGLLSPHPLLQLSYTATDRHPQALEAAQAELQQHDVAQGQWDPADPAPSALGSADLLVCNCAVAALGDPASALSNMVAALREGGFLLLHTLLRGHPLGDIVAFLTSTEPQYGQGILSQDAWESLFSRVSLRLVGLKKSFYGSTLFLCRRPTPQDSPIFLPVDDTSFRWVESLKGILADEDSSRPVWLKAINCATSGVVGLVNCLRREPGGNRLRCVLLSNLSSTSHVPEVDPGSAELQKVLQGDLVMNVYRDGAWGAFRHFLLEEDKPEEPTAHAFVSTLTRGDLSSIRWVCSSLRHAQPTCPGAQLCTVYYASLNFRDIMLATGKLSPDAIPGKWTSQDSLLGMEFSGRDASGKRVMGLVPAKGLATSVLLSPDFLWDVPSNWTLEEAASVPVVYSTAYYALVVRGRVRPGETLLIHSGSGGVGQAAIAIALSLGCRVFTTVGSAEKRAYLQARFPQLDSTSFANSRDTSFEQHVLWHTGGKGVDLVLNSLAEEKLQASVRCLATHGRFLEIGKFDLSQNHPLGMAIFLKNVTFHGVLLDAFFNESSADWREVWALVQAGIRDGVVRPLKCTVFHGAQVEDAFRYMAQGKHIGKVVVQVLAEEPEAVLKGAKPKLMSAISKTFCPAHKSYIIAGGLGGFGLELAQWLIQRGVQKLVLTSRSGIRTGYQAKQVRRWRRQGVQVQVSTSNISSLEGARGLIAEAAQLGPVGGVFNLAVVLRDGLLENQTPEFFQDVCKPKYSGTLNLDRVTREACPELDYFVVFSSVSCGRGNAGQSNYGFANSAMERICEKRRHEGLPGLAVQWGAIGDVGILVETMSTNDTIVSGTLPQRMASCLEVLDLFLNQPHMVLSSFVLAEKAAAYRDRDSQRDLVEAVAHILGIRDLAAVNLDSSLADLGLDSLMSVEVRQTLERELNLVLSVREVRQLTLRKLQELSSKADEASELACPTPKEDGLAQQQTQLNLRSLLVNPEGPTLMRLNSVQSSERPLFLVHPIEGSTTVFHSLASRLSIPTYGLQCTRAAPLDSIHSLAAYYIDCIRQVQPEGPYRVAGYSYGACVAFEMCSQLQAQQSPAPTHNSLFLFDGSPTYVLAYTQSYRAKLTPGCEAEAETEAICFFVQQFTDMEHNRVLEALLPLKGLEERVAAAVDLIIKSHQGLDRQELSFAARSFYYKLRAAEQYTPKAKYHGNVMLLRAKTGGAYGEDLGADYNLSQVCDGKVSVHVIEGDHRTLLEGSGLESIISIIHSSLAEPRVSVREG

SMILES	IC50
O=C(c1ccc(-c2ccc3cc[nH]c3c2)cc1)N1CC2CN(C(=O)C3CC3)CC2C1 (centres unmarked) [Compound A5, (5-cyclopropanecarbonyl-hexahydro-pyrrolo[3,4-c]pyrrol-2-yl)-[4-(1H-indol-6-yl)-phenyl]-methanone]	0.3 to 3 µM
CCC(=O)N1CC2CN(C(=O)c3ccc(-c4ccc5ccoc5c4)cc3)CC2C1 (centres unmarked) [Compound A2, 1-[5-(4-benzofuran-6-yl-benzoyl)-hexahydro-pyrrolo[3,4-c]pyrrol-2-yl]-propan-1-one]	0.3 to 3 µM
CCC(=O)N1CC2CN(C(=O)c3ccc(-c4ccc5cc[nH]c5c4)cc3)CC2C1 (centres unmarked) [Compound A4, 1-{5-[4-(1H-indol-6-yl)-benzoyl]-hexahydro-pyrrolo[3,4-c]pyrrol-2-yl}-propan-1-one]	0.3 to 3 µM
CC(=O)N1CC2CN(C(=O)c3ccc(-c4ccc5cnccc5c4)cc3)CC2C1 (centres unmarked) [Compound A3, 1-[5-(4-isoquinolin-6-yl-benzoyl)-hexahydro-pyrrolo[3,4-c]pyrrol-2-yl]-ethanone]	0.3 to 3 µM
CCC(=O)N1CC2CN(C(=O)c3ccc(-c4ccc5cnccc5c4)cc3)CC2C1 (centres unmarked) [Compound A1, 1-[5-(4-isoquinolin-6-yl-benzoyl)-hexahydro-pyrrolo[3,4-c]pyrrol-2-yl]-propan-1-one]	< 0.3 µM

Continued, values first:

IC50	SMILES
0.3 to 3 µM	O=C(c1ccc(-c2ccc3cnccc3c2)cc1)N1CC2CN(C(=O)C3CC3)CC2C1 (centres unmarked) [Compound A8, (5-cyclopropanecarbonyl-hexahydro-pyrrolo[3,4-c]pyrrol-2-yl)-(4-isoquinolin-6-yl-phenyl)-methanone]
3 to 50 µM	CC(=O)N1CC2CN(C(=O)c3ccc(-c4ccc5ccoc5c4)cc3)CC2C1 (centres unmarked) [Compound A6, 1-[5-(4-benzofuran-6-yl-benzoyl)-hexahydro-pyrrolo[3,4-c]pyrrol-2-yl]-ethanone]
0.3 to 3 µM	CC(=O)N1CC2CN(C(=O)c3ccc(-c4ccc5cc[nH]c5c4)cc3)CC2C1 (centres unmarked) [Compound A7, 1-{5-[4-(1H-indol-6-yl)-benzoyl]-hexahydro-pyrrolo[3,4-c]pyrrol-2-yl}-ethanone]
